The source of these data is article PMC10821600 (The Journal of Biological Chemistry, 2023).

Like-named read-outs stand apart in the source and are kept apart here. No end group written: not given here.

One may read the EC50 as the midpoint of the concentration-response curve. Lower therefore signals an effect from little substance.

One series addresses human NaV1.6 (Homo sapiens, UniProt Q9UQD0). The experiment in a line: cell-based. The note with it: SEM.
The target of another series is mouse NaV1.7 (Mus musculus, UniProt Q62205). The experiment in a line: cell-based. Particulars: SEM.
Another series has as its target human NaV1.7 (Homo sapiens, UniProt Q15858). Description: cell-based. Particulars: SEM.
In a further series the target is human NaV1.8 (Homo sapiens, UniProt Q9Y5Y9). The experiment in a line: cell-based.
The next series deals with human NaV1.9 (Homo sapiens, UniProt Q9UI33). Description: cell-based.
human NaV1.9, sequence (Q9UI33 whole entry): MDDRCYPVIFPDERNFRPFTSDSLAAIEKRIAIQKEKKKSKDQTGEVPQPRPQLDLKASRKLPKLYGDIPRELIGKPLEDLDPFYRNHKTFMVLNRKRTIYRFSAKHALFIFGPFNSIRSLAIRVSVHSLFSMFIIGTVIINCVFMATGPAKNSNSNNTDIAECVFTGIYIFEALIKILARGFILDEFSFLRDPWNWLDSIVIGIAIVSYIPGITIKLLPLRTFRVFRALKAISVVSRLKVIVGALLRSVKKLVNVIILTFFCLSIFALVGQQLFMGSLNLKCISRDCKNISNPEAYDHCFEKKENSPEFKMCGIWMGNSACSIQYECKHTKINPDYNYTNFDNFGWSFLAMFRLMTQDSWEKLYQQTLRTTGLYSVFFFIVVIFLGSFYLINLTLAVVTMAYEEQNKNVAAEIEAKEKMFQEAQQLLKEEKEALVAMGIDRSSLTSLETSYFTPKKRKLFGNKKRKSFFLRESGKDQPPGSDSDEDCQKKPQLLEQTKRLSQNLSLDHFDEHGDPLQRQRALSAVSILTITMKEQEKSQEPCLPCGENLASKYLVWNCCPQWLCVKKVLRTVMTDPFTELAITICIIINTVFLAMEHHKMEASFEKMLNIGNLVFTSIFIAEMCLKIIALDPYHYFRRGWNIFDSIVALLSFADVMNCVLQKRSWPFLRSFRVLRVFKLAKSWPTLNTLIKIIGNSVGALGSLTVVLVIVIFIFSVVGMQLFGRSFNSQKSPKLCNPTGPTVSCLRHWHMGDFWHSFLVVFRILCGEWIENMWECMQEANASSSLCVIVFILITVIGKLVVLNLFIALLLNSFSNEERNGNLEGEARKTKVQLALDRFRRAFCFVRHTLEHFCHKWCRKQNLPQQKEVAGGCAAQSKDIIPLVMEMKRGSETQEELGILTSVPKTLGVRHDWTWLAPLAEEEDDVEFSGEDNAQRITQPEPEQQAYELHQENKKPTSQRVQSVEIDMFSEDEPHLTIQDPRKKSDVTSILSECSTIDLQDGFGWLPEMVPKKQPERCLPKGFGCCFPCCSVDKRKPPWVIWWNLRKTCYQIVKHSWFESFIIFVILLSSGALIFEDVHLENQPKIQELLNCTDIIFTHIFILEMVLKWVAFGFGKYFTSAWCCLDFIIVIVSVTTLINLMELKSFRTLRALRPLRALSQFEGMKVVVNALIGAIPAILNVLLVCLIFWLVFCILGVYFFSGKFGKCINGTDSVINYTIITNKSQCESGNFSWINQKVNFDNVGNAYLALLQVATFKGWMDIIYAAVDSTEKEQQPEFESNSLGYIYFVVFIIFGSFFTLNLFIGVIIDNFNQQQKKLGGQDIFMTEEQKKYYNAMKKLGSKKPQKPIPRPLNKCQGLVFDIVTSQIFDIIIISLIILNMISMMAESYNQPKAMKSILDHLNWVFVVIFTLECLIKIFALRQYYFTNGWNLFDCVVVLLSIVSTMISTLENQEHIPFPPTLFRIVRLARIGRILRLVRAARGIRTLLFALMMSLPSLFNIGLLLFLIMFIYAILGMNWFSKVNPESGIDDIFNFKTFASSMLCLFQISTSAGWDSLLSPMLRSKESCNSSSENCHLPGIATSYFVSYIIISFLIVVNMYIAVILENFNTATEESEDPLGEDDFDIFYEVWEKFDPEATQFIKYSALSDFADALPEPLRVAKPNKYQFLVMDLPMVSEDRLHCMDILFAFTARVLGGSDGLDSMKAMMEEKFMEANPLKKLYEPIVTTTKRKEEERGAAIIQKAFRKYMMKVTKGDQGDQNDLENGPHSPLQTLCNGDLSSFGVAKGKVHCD
Another series has as its system blowflies (L. caesar). Also noted: species or system Lucilia caesar. Particulars: in vivo.
A further series concerns human erythrocytes. Particulars: red cells of human, 1 h.
The test system of the next series is HEK293 cells. Particulars: 1 h.
The test system of another series is C57BL/6J mice. Particulars: mouse, in vivo.

human NaV1.6, sequence (Q07699 19-218): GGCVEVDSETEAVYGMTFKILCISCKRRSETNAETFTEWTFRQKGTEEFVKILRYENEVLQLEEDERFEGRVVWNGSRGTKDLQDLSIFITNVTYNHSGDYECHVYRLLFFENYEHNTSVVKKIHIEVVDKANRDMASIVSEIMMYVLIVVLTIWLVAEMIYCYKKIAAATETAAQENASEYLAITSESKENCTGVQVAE
human NaV1.6, sequence (Q9UQD0 whole entry): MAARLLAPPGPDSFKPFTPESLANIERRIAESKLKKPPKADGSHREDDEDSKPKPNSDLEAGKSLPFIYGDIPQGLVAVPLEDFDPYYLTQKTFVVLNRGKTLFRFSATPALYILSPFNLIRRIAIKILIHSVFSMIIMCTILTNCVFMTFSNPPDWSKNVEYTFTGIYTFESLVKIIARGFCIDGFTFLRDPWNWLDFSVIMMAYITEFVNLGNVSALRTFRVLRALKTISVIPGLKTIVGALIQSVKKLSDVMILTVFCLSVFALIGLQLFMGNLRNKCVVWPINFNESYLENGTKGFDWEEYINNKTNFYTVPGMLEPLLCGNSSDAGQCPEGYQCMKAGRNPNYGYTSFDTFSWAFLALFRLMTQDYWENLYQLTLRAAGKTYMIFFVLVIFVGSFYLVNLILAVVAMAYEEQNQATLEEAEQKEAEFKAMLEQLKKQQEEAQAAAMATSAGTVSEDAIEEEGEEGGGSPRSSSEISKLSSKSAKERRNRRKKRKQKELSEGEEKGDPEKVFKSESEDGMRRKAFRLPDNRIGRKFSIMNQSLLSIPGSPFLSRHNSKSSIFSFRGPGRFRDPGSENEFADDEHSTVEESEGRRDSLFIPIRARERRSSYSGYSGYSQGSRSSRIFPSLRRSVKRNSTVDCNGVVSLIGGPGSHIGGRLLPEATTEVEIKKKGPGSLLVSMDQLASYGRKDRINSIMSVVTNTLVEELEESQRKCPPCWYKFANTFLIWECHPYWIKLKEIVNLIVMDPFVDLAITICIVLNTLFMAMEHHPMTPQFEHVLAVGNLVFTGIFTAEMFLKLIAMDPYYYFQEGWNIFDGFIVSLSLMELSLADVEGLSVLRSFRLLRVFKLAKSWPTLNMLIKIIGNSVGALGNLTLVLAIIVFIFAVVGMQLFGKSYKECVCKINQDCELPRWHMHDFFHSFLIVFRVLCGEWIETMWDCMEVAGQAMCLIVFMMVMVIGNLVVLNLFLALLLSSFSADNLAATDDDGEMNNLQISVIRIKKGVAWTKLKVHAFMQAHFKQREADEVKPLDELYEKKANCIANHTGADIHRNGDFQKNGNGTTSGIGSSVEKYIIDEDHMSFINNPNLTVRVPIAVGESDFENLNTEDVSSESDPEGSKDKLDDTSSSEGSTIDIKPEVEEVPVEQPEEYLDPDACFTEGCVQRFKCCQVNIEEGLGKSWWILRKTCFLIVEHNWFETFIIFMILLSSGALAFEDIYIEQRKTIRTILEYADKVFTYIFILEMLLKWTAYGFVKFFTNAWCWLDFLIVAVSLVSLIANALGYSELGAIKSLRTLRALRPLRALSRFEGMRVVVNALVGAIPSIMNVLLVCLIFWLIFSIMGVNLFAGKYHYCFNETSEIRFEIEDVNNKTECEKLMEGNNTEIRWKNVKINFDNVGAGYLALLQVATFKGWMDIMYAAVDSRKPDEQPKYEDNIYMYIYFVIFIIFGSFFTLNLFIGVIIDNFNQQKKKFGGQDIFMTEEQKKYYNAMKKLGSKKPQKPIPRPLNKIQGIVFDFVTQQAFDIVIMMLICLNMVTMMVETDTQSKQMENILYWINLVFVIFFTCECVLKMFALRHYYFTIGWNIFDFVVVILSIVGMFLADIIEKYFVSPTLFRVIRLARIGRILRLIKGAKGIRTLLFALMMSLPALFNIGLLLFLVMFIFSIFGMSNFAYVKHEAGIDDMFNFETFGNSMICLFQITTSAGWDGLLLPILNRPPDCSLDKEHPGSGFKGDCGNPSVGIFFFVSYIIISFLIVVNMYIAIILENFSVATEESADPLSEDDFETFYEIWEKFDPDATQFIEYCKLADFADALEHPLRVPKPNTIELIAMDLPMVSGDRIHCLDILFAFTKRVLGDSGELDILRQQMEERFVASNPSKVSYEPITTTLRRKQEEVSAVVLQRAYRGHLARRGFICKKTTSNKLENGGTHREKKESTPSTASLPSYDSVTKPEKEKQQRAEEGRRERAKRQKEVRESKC

ALPALPLLMFLFTLPALQHWIEKNWIN-NH2 [Pm2a]: the EC50 on human NaV1.6 was 176 ± 56 nM; on mouse NaV1.7, 102 ± 18 nM; at human NaV1.7 it was 154 ± 17 nM; on human NaV1.8 (SEM) it was 2600 ± 700 nM; on human NaV1.9, less than 1000 nM.

GLPLLALLFSLPVLQHWIEKNWIN-NH2 [Pm1a]: the EC50 was 285 ± 47 nM at human NaV1.6; 352 ± 58 nM on mouse NaV1.7; 403 ± 96 nM on human NaV1.7; more than 10000 nM on human NaV1.8; more than 1000 nM at human NaV1.9.

“GIFSALKTLGKILLPVILPTVAEKIKEKV-NH2 [Pm6a]”: in the series on blowflies (L. caesar), the “kind of paralysis in blowflies” value was “rapid paralysis” and the “reversibility of paralysis in blowflies” value is on record as “irreversible”. In the series on blowflies (L. caesar) (SEM), the “median paralytic dose PD50[1 h]” value was 9.9 ± 0.4 nmol/g. Moreover, in the series with human erythrocytes, the “median hemolytic concentration (HC50)” value is 618 ± 148 nM. Further, the “median cytotoxic concentration (CC50)” value in the series with HEK293 cells was found to be 465 ± 359 nM. Also, the “spontaneous nocifensive behaviors in mice” value with C57BL/6J mice is reported as “did not cause nociception in mice”.
